Laboratory results from article PMC3914206.

Experiments:
Assay type in all cases: binding
Parameters in all cases: KINOMEscan: ABL1(F317L)-phosphorylated / KINOMEscan: ABL1(H396P)-nonphosphorylated / KINOMEscan: ABL1(H396P)-phosphorylated / KINOMEscan: ABL1(M351T)-phosphorylated / KINOMEscan: ABL1(T315I)-phosphorylated / KINOMEscan: ABL1-nonphosphorylated / KINOMEscan: ABL1-phosphorylated / KINOMEscan: ACVR2A / KINOMEscan: ACVR2B / KINOMEscan: ADCK3 / KINOMEscan: ADCK4 / KINOMEscan: AKT1 / KINOMEscan: AKT3 / KINOMEscan: ALK / KINOMEscan: ARK5 / KINOMEscan: AURKA / KINOMEscan: AURKC / KINOMEscan: BIKE / KINOMEscan: BMPR1A / KINOMEscan: BMPR1B / KINOMEscan: BMX / KINOMEscan: BRK / KINOMEscan: BRSK1 / KINOMEscan: BRSK2 / KINOMEscan: CAMK1 / KINOMEscan: CAMK1D / KINOMEscan: CAMK1G / KINOMEscan: CAMK2A / KINOMEscan: CAMK2B / KINOMEscan: AAK1 / KINOMEscan: CAMK2D / KINOMEscan: CAMK2G / KINOMEscan: ABL1(F317I)-nonphosphorylated / KINOMEscan: ABL1(F317I)-phosphorylated / KINOMEscan: ABL1(F317L)-nonphosphorylated: unit: % Ctrl
Details in all cases: Compound Concentration 10 µM
panel of 442 kinases [1] = target: T1, panel of 442 kinases (Homo sapiens, UniProt P00519)
T1 construct: purchased KINOMEscan
Source text: (§1) We assessed the selectivity of members of this scaffold using the KINOMEscan methodology across a near comprehensive panel of 442 kinases [[18,27]].

panel of 442 kinases [2] = target: T2, panel of 442 kinases (Homo sapiens, UniProt P08581, M1250T)
T2 construct: purchased KINOMEscan
Source text: as §1

panel of 442 kinases [3] = target: T3, panel of 442 kinases (Homo sapiens, UniProt Q96GD4)
T3 construct: purchased KINOMEscan
Source text: as §1

panel of 442 kinases [4] = target: T4, panel of 442 kinases (Homo sapiens, UniProt Q9Y463)
T4 construct: purchased KINOMEscan
Source text: as §1

T2 sequence (P08581 25-1390 M1250T): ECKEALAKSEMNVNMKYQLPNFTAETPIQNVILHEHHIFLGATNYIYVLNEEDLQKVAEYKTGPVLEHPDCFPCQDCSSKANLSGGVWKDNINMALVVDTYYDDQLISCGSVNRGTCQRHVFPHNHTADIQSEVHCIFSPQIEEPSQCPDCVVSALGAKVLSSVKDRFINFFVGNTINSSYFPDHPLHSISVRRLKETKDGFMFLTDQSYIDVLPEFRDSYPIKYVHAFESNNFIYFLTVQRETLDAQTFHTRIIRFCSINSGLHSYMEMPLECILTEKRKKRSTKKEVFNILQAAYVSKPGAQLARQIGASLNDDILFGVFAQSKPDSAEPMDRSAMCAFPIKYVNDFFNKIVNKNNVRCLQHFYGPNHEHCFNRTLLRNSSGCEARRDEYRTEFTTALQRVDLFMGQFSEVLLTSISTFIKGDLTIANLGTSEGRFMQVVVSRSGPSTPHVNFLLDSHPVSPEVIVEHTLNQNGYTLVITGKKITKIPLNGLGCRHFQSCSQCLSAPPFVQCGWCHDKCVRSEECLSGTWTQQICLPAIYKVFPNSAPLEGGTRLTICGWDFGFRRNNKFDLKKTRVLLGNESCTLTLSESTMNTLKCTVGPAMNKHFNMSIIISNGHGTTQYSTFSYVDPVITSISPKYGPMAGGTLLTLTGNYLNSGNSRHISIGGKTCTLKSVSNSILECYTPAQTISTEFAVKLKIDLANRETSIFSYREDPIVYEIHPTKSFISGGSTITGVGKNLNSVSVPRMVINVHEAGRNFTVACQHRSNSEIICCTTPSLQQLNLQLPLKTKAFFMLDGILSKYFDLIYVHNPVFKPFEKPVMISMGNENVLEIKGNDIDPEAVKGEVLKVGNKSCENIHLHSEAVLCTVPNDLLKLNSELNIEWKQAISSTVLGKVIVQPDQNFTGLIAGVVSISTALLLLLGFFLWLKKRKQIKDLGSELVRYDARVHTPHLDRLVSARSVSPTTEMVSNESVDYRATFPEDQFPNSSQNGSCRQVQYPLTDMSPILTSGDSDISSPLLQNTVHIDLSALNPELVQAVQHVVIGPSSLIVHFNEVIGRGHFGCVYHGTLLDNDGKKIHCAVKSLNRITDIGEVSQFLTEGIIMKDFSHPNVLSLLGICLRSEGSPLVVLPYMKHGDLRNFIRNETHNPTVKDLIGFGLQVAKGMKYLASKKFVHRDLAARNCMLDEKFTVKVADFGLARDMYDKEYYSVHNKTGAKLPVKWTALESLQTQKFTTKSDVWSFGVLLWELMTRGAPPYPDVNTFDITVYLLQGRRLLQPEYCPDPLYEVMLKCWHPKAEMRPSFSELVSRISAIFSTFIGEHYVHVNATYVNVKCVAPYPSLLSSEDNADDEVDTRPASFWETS
T4 sequence (Q9Y463 whole entry): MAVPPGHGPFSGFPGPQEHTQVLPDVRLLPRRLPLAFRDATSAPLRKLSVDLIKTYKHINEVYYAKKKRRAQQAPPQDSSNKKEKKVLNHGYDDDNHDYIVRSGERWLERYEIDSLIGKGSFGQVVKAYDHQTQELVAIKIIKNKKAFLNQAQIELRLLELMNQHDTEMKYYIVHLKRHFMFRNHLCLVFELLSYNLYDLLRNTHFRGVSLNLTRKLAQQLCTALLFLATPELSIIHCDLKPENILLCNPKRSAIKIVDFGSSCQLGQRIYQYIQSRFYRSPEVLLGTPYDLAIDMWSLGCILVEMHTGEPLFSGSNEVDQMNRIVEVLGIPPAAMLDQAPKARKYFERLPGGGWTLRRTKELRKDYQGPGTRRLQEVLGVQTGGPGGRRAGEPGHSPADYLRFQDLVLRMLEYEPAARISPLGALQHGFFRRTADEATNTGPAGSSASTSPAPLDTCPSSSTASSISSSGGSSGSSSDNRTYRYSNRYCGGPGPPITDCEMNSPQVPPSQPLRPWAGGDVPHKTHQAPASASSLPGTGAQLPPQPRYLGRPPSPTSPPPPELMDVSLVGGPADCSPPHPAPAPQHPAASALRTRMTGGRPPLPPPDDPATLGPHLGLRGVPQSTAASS
T3 sequence (Q96GD4 whole entry): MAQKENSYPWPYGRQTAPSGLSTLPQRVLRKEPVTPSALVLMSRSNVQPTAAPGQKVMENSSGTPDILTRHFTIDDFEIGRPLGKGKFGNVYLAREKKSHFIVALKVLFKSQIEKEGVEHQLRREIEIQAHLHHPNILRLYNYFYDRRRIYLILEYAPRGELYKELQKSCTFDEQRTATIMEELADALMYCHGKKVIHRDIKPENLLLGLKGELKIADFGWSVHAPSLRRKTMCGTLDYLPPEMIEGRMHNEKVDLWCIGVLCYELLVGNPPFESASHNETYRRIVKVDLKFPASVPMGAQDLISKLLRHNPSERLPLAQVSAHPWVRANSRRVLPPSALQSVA
T1 sequence (P00519 whole entry): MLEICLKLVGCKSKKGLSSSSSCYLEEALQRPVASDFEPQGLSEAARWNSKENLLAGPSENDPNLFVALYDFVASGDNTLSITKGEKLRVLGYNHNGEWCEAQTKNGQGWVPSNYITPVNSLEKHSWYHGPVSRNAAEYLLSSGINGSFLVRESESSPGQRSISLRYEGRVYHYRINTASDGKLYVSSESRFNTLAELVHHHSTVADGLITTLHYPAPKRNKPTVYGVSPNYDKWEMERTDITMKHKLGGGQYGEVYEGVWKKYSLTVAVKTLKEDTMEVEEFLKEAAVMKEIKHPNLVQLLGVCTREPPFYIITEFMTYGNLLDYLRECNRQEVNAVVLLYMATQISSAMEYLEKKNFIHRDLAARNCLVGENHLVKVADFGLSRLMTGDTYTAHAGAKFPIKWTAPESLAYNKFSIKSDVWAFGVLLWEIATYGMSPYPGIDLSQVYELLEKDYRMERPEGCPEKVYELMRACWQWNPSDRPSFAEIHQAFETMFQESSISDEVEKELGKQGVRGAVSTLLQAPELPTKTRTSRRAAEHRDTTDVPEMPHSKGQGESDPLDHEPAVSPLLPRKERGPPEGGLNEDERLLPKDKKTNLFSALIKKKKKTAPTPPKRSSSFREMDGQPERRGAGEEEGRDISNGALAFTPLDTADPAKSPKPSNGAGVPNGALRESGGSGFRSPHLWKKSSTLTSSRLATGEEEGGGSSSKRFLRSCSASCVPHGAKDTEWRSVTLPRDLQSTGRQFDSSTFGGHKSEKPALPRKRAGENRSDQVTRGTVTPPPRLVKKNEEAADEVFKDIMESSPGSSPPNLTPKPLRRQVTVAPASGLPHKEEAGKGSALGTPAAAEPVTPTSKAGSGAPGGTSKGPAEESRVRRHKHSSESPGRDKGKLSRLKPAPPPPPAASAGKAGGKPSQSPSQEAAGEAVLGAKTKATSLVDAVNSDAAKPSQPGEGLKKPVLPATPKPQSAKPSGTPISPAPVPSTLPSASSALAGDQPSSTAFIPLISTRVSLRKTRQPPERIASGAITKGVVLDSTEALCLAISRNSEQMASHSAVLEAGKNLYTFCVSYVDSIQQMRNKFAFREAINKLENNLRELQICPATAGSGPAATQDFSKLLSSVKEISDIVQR

Structure (SMILES) | KINOMEscan: ABL1-nonphosphorylated (panel of 442 kinases [1]) | KINOMEscan: ABL1-phosphorylated (panel of 442 kinases [1]) | KINOMEscan: MET(M1250T) (panel of 442 kinases [2]) | KINOMEscan: AURKB (panel of 442 kinases [3]) | KINOMEscan: DYRK1B (panel of 442 kinases [4])
COc1cc(C(=O)N2CCC(N3CCN(C)CC3)CC2)ccc1Nc1ncc2c(n1)N(C)c1ccccc1C(=O)N2C [15 (LRRK2-IN-1)] | 100 | 82 | 96 | 38 | 94
COc1cc(C(=O)N2CCC(N3CCN(C)CC3)CC2)ccc1Nc1ncc2c(n1)N1CCc3cccc(c31)C(=O)N2C [Compound 24] | 60 | 81 | 88 |  | 
COc1cc(C(=O)N2CCC(N3CCN(C)CC3)CC2)ccc1Nc1ncc2c(n1)N(C1CCCC1)c1ccccc1C(=O)N2C [Compound 25, 11-cyclopentyl-2-((2-methoxy-4-(4-(4-methylpiperazin-1-yl)piperidine-1-carbonyl)phenyl)amino)-5-methyl-5H-benzo[e]pyrimido[5,4-b][1,4]diazepin-6(11H)-one] | 90 | 100 | 95 | 60 | 69
CCOc1cc(C(=O)N2CCC(N3CCN(C)CC3)CC2)ccc1Nc1ncc2c(n1)N(C1CCCC1)c1ccccc1C(=O)N2C [Compound 26] | 96 | 100 | 100 | 100 | 71
